Test [1] deals with HER2+ cell lines (N87 and SKBR3). Nature of the test: In vitro efficacy with hydroxy-containing drugs (aromatic and aliphatic alcohols). It is filed as cell-based. The settings on record: unconjugated drug. An excerpt: The scope of the linker system of conjugates in accordance with embodiments of the invention has been evaluated with further phenol-(or aromatic alcohol-) containing drugs OTS-964, Ganetespib and Birabresib. OTS-964 is a potent TOPK inhibitor, Ganetespib is a potent […], and Birabresib is a potent bromodomain inhibitor. […] Potency of the free payloads (OTS-964, Ganetespib and Birabresib) in the respective cell lines is also shown.
The scope of the linker system described herein has been also evaluated with further aliphatic alcohol-containing drugs SNX-2112, Gemcitabine and Barasertib. SNX-2112 is a potent HSP90-inhibitor, Gemcitabine is a potent ribonucleotide reductase inhibitor, and Barasertib is a potent Aurora B kinase inhibitor. […] Potency of the free payloads (SNX-2112, Gemcitabine and Barasertib) in the respective cell lines is also shown.

For test [2], the system named is Trop2-positive cell lines. Nature of the test: In vitro cell viability (in vitro potency) of SN38 based ADCs. The settings on record: various target-positive cell lines.
Procedure: Antibody-drug conjugates (ADCs) comprising the anti-Trop2 antibody Sacituzumab, a phosphorus(V) moiety according to embodiments of the present invention, and SN38 as drug were tested in in vitro potency assays against various Trop2-positive cell lines. The corresponding ADCs with the non-targeted antibody Trastuzumab were used as isotype control. For direct comparison, the approved and marketed ADC Trodelvy comprising Sacituzumab, a CL2A linker and SN38 as drug was also tested. The corresponding ADC with Trastuzumab was used as isotype control.
Linkers have been conjugated to Sacituzumab (anti-Trop2) and Trastuzumab (anti Her2, isotype in this setting) and tested on a panel of 4 different cell lines. All cell lines were Trop+ and Her2−. Trastuzumab conjugates serve as isotype control in this setting. […] Sacituzumab-CL2A-SN38 is Trodelvy and has been purchased for the experiment.

In the case of `Cc1sc2c(c1C)C(c1ccc(Cl)cc1)=N[C@@H](CC(=O)Nc1ccc(O)cc1)c1nnc(C)n1-2` [Birabresib], the “activity of free payload” value in test [1] is on record as “lower activities of the unconjugated drugs”.
The same measure, in the same setting: the entry for `CC(C)c1cc(-c2n[nH]c(=O)n2-c2ccc3c(ccn3C)c2)c(O)cc1O` [Ganetespib] is “highest activity as free payload”; for `Cc1cc(O)c(-c2ccc(C(C)CN(C)C)cc2)c2c1[nH]c(=O)c1sccc12` (stereo not shown) [OTS-964] it is “lower activities of the unconjugated drugs”.
Consider “Sacituzumab conjugated to O—P5(PEG12)-amidopentyl-Phosphoramidate-N-(4-Methylbenzyl)-O—SN38”, for which the “in vitro potency, non-cleavable control vs cleavable conjugate” value in test [2] is listed as “not active in the in vitro cell viability assay”.

The record behind these values is patent US20240269313A1, “CONJUGATES COMPRISING A PHOSPHORUS(V) MOIETY AND A DRUG” (Tubulis GmbH, priority 2022, published 2024).
